From patent publication US10125100B2, “Kinase inhibitors” (Respivert Limited, priority 2014, dated 2018) come the findings set out here.

For the data set, the system named is Jurkat cells. The experiment in a line: (r) Cell cytotoxicity assay. To be noted: 24 hours. Format: cell-based, human. The protocol: 1×10^5 Jurkat cells (immortalised human T lymphocytes) are added to the appropriate number of wells of a 96 well plate in 100 μL of media (RPMI supplemented with 10% foetal bovine serum). 1 μL of DMSO control (final concentration 1.0% v/v) or test compound (final concentration 20, 5 or 1 μg/mL) is added to the wells and incubated at 37° C., 5% CO2. After 24 hours, the plate is centrifuged at 1200 rpm for 3 minutes and the supernatant discarded. Cells are then resuspended in 150 μL (final concentration 7.5 μg/mL) of propidium iodide (PI) in PBS and incubated at 37° C., 5% CO2 for 15 minutes. After 15 minutes, cells are analysed by flow cytometry (BD accuri) using the FL3 window. The % viability is calculated as the % of cells that are PI negative in the test wells normalised to the DMSO control.

On to `COc1cc(Nc2cc(Oc3ccc(NC(=O)Nc4cc(C(C)(C)C)cc(NS(C)(=O)=O)c4OC)c4ccccc34)ccn2)ccc1-n1ccccc1=O` [Example 31, N-(5-(tert-Butyl)-2-methoxy-3-(3-(4-((2-((3-methoxy-4-(2-oxopyridin-1 (2H)-yl)phenyl)amino)-pyridin-4-yl)oxy)naphthalen-1-yl)ureido)phenyl)methanesulfonamide], for which the “% Viability at 1 μg/mL” value is recorded as 99.9%, the “% Viability at 5 μg/mL” value came out at 97.6% and the “% Viability at 20 μg/mL” value was 99.0%.
As to `COc1cc(Nc2cc(Oc3ccc(NC(=O)Nc4cc(C(C)(C)C)cc(C(=O)NCCO)c4OC)c4ccccc34)ccn2)ccc1C(=O)NCCN1CC[S+]([O-])CC1` [Example 32, 5-(tert-Butyl)-N-(2-hydroxyethyl)-2-methoxy-3-(3-(4-((2-((3-methoxy-4-((2-(1-oxidothiomorpholino)ethyl)carbamoyl)phenyl)amino)pyridin-4-yl)oxy)naphthalen-1-yl)ureido)benzamide], the “% Viability at 1 μg/mL” value was found to be 95.4%, the “% Viability at 5 μg/mL” value turned out to be 43.1% and the “% Viability at 20 μg/mL” value is recorded as 2.5%.
Taken in the same sequence, the figures for `COc1cc(Nc2nccc(Oc3ccc(NC(=O)Nc4cc(C(C)(C)C)cc(NS(C)(=O)=O)c4OC)c4ccccc34)n2)ccc1C(=O)NCCN1CCN(C)CC1` [17(aq), 4-((4-((4-(3-(5-(tert-Butyl)-2-methoxy-3-(methylsulfonamido)phenyl)ureido)naphthalen-1-yl)oxy)pyrimidin-2-yl)amino)-2-methoxy-N-(2-(4-methylpiperazin-1-yl)ethyl)benzamide] were 95.1%, 0.2% and 1.3%.
Consider `COc1cc(Nc2nccc(Oc3ccc(NC(=O)Nc4cc(C(C)(C)C)cc(NS(C)(=O)=O)c4OC)c4ccccc34)n2)ccc1C(=O)NCCCN1CCOCC1` [17(ao), 4-((4-((4-(3-(5-(tert-Butyl)-2-methoxy-3-(methylsulfonamido)phenyl)ureido)naphthalen-1-yl)oxy)pyrimidin-2-yl)amino)-2-methoxy-N-(3-morpholinopropyl)benzamide], for which the “% Viability at 1 μg/mL” value came out at 89.2%, the “% Viability at 5 μg/mL” value was 16.5% and the “% Viability at 20 μg/mL” value was 1.6%.
Taken in the same sequence, the figures for `COc1cc(Nc2cc(Oc3ccc(NC(=O)Nc4cc(C(C)(C)C)cc(NS(C)(=O)=O)c4OC)c4ccccc34)ccn2)ccc1C(=O)N(C)CCN1CCOCC1` [17(ab), 4-[[4-[[4-[[5-tert-butyl-3-(methanesulfonamido)-2-methoxy-phenyl]carbamoylamino]-1-naphthyl]oxy]-2-pyridyl]amino]-2-methoxy-N-methyl-N-(2-morpholinoethyl)benzamide] were 108.6%, 95.6% and 93.9%.
On to `COc1cc(Nc2cc(Oc3ccc(NC(=O)Nc4cc(C(C)(C)C)cc(NS(C)(=O)=O)c4OC)c4ccccc34)ccn2)ccc1S(=O)(=O)N(C)CCCN1CCN(C)CC1` [Example 25, 4-((4-((4-(3-(5-(tert-Butyl)-2-methoxy-3-(methylsulfonamido)phenyl)ureido)naphthalen-1-yl)oxy)pyridin-2-yl)amino)-2-methoxy-N-methyl-N-(3-(4-methylpiperazin-1-yl)propyl)benzenesulfonamide], for which the “% Viability at 1 μg/mL” value is reported as 91.8%, the “% Viability at 5 μg/mL” value turned out to be 78.9% and the “% Viability at 20 μg/mL” value was 0.7%.
Taken in the same sequence, the figures for `COc1cc(Nc2cc(Oc3ccc(NC(=O)Nc4cc(C(C)(C)C)cc(NS(C)(=O)=O)c4OC)c4ccccc34)ccn2)ccc1S(=O)(=O)N(C)CCN1CCN(C)CC1` [17(bb), 4-((4-((4-(3-(5-(tert-Butyl)-2-methoxy-3-(methylsulfonamido)phenyl)ureido)naphthalen-1-yl)oxy)pyridin-2-yl)amino)-2-methoxy-N-methyl-N-(2-(4-methylpiperazin-1-yl)ethyl)benzenesulfonamide] were 90.9%, 19.2% and 0.2%.
As to `COc1cc(Nc2nccc(Oc3ccc(NC(=O)Nc4cc(C(C)(C)C)cc(NS(C)(=O)=O)c4OC)c4ccccc34)n2)ccc1C(=O)NCCOCCOCCO` [17(by), 4-((4-((4-(3-(5-(tert-Butyl)-2-methoxy-3-(methylsulfonamido)phenyl)ureido)naphthalen-1-yl)oxy)pyrimidin-2-yl)amino)-N-(2-(2-(2-hydroxyethoxy)ethoxy)ethyl)-2-methoxybenzamide], the “% Viability at 1 μg/mL” value is listed as 102.4%, the “% Viability at 5 μg/mL” value is recorded as 81.5% and the “% Viability at 20 μg/mL” value is given as 1.6%.
Regarding `COc1cc(Nc2nccc(Oc3ccc(NC(=O)Nc4cc(C(C)(C)C)cc(NS(C)(=O)=O)c4OC)c4ccccc34)n2)cc(OC)c1C(=O)NCCN1CCN(C)CC1` [17(az), 4-((4-((4-(3-(5-(tert-Butyl)-2-methoxy-3-(methylsulfonamido)phenyl)ureido)naphthalen-1-yl)oxy)pyrimidin-2-yl)amino)-2,6-dimethoxy-N-(2-(4-methylpiperazin-1-yl)ethyl)benzamide], the “% Viability at 1 μg/mL” value is given as 105.4%, the “% Viability at 5 μg/mL” value came to 93.1% and the “% Viability at 20 μg/mL” value is on record as 4.5%.
On to `COc1cc(Nc2cc(Oc3ccc(NC(=O)Nc4cc(C(C)(C)C)cc(NS(C)(=O)=O)c4OC)c4ccccc34)ccn2)ccc1C(=O)NCCC1(O)CCN(C)CC1` [17(bg), 4-((4-((4-(3-(5-(tert-Butyl)-2-methoxy-3-(methylsulfonamido)phenyl)ureido)naphthalen-1-yl)oxy)pyridin-2-yl)amino)-N-(2-(4-hydroxy-1-methylpiperidin-4-yl)ethyl)-2-methoxy benzamide], for which the “% Viability at 1 μg/mL” value is 86.5%, the “% Viability at 5 μg/mL” value stood at 60.0% and the “% Viability at 20 μg/mL” value is 0.3%.
Consider `COc1cc(Nc2cc(Oc3ccc(NC(=O)Nc4cc(C(C)(C)C)cc(NS(C)(=O)=O)c4OC)c4ccccc34)ccn2)cc(OC)c1C(=O)NC1CCN(C)CC1` [17(bz), 4-((4-((4-(3-(5-(tert-Butyl)-2-methoxy-3-(methylsulfonamido)phenyl)ureido)naphthalen-1-yl)oxy)pyridin-2-yl)amino)-2,6-dimethoxy-N-(1-methylpiperidin-4-yl)benzamide], for which the “% Viability at 1 μg/mL” value came out at 93.6%, the “% Viability at 5 μg/mL” value was 92.7% and the “% Viability at 20 μg/mL” value is 64.1%.
Regarding `COc1cc(Nc2cc(Oc3ccc(NC(=O)Nc4cc(C(C)(C)C)cc(NS(C)(=O)=O)c4OC)c4ccccc34)ccn2)cc(OC)c1C(=O)N1CCN(CCN(C)C)CC1` [17(cg), N-(5-(tert-Butyl)-3-(3-(4-((2-((4-(4-(2-(dimethylamino)ethyl)piperazine-1-carbonyl)-3,5-dimethoxyphenyl)amino)pyridin-4-yl)oxy)naphthalen-1-yl)ureido)-2-methoxyphenyl)methane sulfonamide], the “% Viability at 1 μg/mL” value was found to be 96.1%, the “% Viability at 5 μg/mL” value worked out at 95.3% and the “% Viability at 20 μg/mL” value worked out at 92.3%.
Turning to `CCN1CCN(CCNC(=O)c2ccc(Nc3cc(Oc4ccc(NC(=O)Nc5cc(C(C)(C)C)cc(NS(C)(=O)=O)c5OC)c5ccccc45)ccn3)cc2OC)CC1` [17(be), 4-((4-((4-(3-(5-(tert-Butyl)-2-methoxy-3-(methylsulfonamido)phenyl)ureido)naphthalen-1-yl)oxy)pyridin-2-yl)amino)-N-(2-(4-ethylpiperazin-1-yl)ethyl)-2-methoxybenzamide], the “% Viability at 1 μg/mL” value amounted to 92.4%, the “% Viability at 5 μg/mL” value stood at 0.7% and the “% Viability at 20 μg/mL” value is reported as 0.5%.
Regarding `COc1cc(Nc2cc(Oc3ccc(NC(=O)Nc4cc(C(C)(C)C)cc(NS(C)(=O)=O)c4OC)c4ccccc34)ccn2)ccc1CP(C)(=O)O` [Example 70, (4-((4-((4-(3-(5-(tert-Butyl)-2-methoxy-3-(methylsulfonamido)phenyl)ureido)naphthalen-1-yl)oxy)pyridin-2-yl)amino)-2-methoxybenzyl)(methyl)phosphinic acid], the “% Viability at 1 μg/mL” value is on record as 95.3%, the “% Viability at 5 μg/mL” value is recorded as 91.9% and the “% Viability at 20 μg/mL” value is 63.8%.
Taken in the same sequence, the figures for `COc1cc(Nc2cc(Oc3ccc(NC(=O)Nc4cc(C(C)(C)C)cc(NS(C)(=O)=O)c4OC)c4ccccc34)ccn2)ccc1C(=O)NC[C@@H]1O[C@H](CO)[C@@H](O)[C@H](O)[C@H]1O` [17(co), 4-((4-((4-(3-(5-(tert-Butyl)-2-methoxy-3-(methylsulfonamido)phenyl)ureido)naphthalen-1-yl)oxy)pyridin-2-yl)amino)-2-methoxy-N-(((2S,3R,4R,5S,6R)-3,4,5-trihydroxy-6-(hydroxymethyl)tetrahydro-2H-pyran-2-yl)methyl)benzamide] were 94.5%, 93.3% and 92.2%.
Regarding `COc1cc(Nc2cc(Oc3ccc(NC(=O)Nc4cc(C(C)(C)C)cc(NS(C)(=O)=O)c4OC)c4ccccc34)ccn2)cc(OC)c1C(=O)NCCC1CCN(C)CC1` [17(at), 4-((4-((4-(3-(5-(tert-Butyl)-2-methoxy-3-(methylsulfonamido)phenyl)ureido)naphthalen-1-yl)oxy)pyridin-2-yl)amino)-2,6-dimethoxy-N-(2-(1-methylpiperidin-4-yl)ethyl)benzamide], the “% Viability at 1 μg/mL” value is reported as 95.2%, the “% Viability at 5 μg/mL” value turned out to be 93.2% and the “% Viability at 20 μg/mL” value is 86.6%.
